Entries after “also recorded” stand apart in the source; their conditions may differ.
How the values were obtained:
Type in all cases: in vivo, mouse
[1] = system: hypoxia-induced pulmonary hypertension in C57BL/6 male mice; assay: Blocking/prevention of hypoxia-induced pulmonary hypertension (dosing prior to and during hypoxia); details: 18th day of hypoxia
Protocol: Ultrasound measurements were acquired using the following protocol. Mice were anesthetized, placed in a supine position on a heated platform (THM 100, Indus Instruments) and 2D imaging of the pulmonary infundibulum (B- and M-mode) was carried out using a Vevo 2100 ultrasound system (VisualSonics). Images were obtained from the parasternal short-axis view at the level of the aortic valve. Pulsed-wave Doppler measurements were obtained at the tip of the pulmonary valve leaflets once the scanhead was aligned for maximal laminar flow. In addition, M-mode recordings of the right ventricle were acquired at the short axis B-mode imaging plane to obtain right ventricular free-wall dynamics through the cardiac cycle.
Ultrasound data analysis, performed in a blinded manner, analyzed the following parameters: Diastolic and systolic right ventricular free-wall thickness (RVFW, short axis M-mode), pulmonary artery diameter at end-systole (short axis B-mode), and pulmonary artery flow (PA flow, PW Doppler). From these measurements, time-velocity integral of pulmonary flow, pulmonary artery cross-sectional area (PA CSA), and right ventricle cardiac output (RV CO) were calculated. Means and standard errors of the mean were calculated for measurements at each time point, for each treatment group. All measurements were averaged on 3 cardiac cycles. Right ventricular pressures at 21 days of hypoxia were recorded using the following protocol: Mice were anesthetized, placed in the supine position on a heated platform (Water-jacketed pad heated with a Gaymar heating pump) and an incision over the right common carotid artery and right jugular vein was made isolating the right jugular taking care not to damage the carotid artery and/or the Vagus nerve. […]
Right ventricular systolic pressure analysis was conducted using LabChart Pro software (ADInstruments) at approximately 60 second intervals of pressure tracing (following a 2 minute period of recording to allow for pressure stabilization). The parameters analyzed were RV diastolic and systolic pressures, heart rate and animal temperature. […]

[2] = system: hypoxia-induced pulmonary hypertension in C57BL/6 male mice; assay: Treatment of hypoxia-induced pulmonary hypertension (dosing from Day 14 of hypoxia); details: dosing Days 14-21 of hypoxia; for Pulmonary Artery Cross-Sectional Area (PA CSA) / Right Ventricular Free Wall (RVFW) Thickening: 21st day; for Pulmonary Artery Cross-Sectional Area (PA CSA): FIG. 6; for Right Ventricular Free Wall (RVFW) Thickening: FIG. 7
Protocol: In this Example, the ability of anti-big-ET-1 antibody […] to treat hypoxia-induced pulmonary hypertension in mouse was evaluated. Experimental group animals were subjected to hypoxic conditions for 21 days (Day 1-21) and dosed with […], Bosentan, or control isotype antibody starting on Day 14. At Day 21, animals were evaluated using ultrasound images and measurements of ventricular pressures and cardiac hypertrophy (see Evaluation Materials and Methods in Example 7) and compared to control animals (maintained under normoxic conditions, hypoxia for 14 days, or hypoxia for 14 days followed by normoxia for 7 days). […] C57BL/6 male mice (10-11 weeks old) were weighed and treated or treated and dosed over a course of 21 days as outlined in Table 10. Bosentan was administered orally (PO); anti-big-ET-1 antibody […] and isotype control antibody were administered subcutaneously (SC). Body weights were consistent between groups over the course of this study. Bosentan, an orally active non-selective antagonist of endothelin receptor-A and -B, was used as a positive control while an irrelevant isotype-matched antibody served as the negative control. All procedures were approved by the Regeneron Institutional Animal Care and Use Committee (IACUC). Non-invasive ultrasound scanning was performed to determine pulmonary artery cross-sectional area (PA CSA), right ventricle cardiac output (RV CO) and right ventricular free wall thickness (RVFW) on the 21st day of hypoxia. Right ventricular diastolic and systolic pressures were acquired using a high-fidelity pressure catheter (Mikro-Tip®, Millar Instruments) in the right ventricle; in addition, right ventricular hypertrophy measurements (i.e., weight ratio of right ventricle-to-left ventricle+septum; Fulton Index) were measured at 21 days of hypoxia.

[3] = system: bleomycin-induced pulmonary fibrosis in C57BL/6 male mice
Protocol: Bleomycin-induced lung injury was used to model pulmonary fibrosis in 10-week-old C57BL/6 male mice. Bleomycin sulfate was administered via a single oropharyngeal dose (3.2 U/kg (2.0 mg/kg) in a 2.0 ml/kg volume). Untreated control mice received a transoral instillation of sterile 0.9% saline (2.0 ml/kg). Bosentan, an orally active non-selective antagonist of endothelin receptor-A and -B, was used as a positive control for treatment, while vehicle and an irrelevant isotype matched antibody served as negative controls. Mice were allocated to treatment or control groups with dosing regimens as outlined in Table 11.
Each cage was randomly assigned to a therapeutic treatment group so all mice in the cage received the same treatment. Initial average body weight for each treatment group was similar. Daily body weights were recorded throughout the study. Group body weight average and percent change were analyzed and graphed.
Administration of bleomycin or saline was performed while animals were under anesthesia (isoflurane at a 3.5% to 2-liters/min oxygen flow rate). Sedated mice were placed on a 60-degree tilt board, head up with an elastic band around the incisors. A small cotton tip was used to roll tongue out of the mouth then forceps were used to hold tongue and to open the jaw. During a heavy inhalation, fluid was pipetted into the mouth. Tongue and jaw positions were maintained while mouse remained on the tilt board. Approximately 20 seconds elapsed after pipetting for fluid to disappear and “wheezing” to stop. After treatment instillation, mice were group-housed by treatment conditions (5 animals per cage) in disposable cages for 7 days because of excreted biohazard and then returned to home cages. Disposable cages differed from home cages only by use of a cage top bottle for water instead of use of Thoren rack watering system. All mice were housed in colony on 12 hr (7 am-7 pm) light-dark cycle.
Bosentan was administered by oral gavage twice daily (9:30 am and 6:30 pm) during the week. The initial pretreatment dose and weekend day doses were administered as a single combined BID. As outlined in Table 11, Bosentan dosing continued daily through day 20 of study while antibodies and vehicle were subcutaneously dosed every 3 days through day 18.
Pulmonary function was gauged by measuring arterial oxygen saturation using the Starr Life Sciences, MouseOx small animal vital signs monitor. Measurements were taken around the neck region following hair removal on Days 14 and 17. The MouseOx can monitor the cardio-pulmonary health and degree of lung injury by measuring the level of oxygen carried to the tissues on hemoglobin molecules in red blood cells. A throat collar sensor was used to measure arterial oxygen saturation via the carotid artery in conscious mice. Mice were lightly restrained by hand to confine subject to the cage top food hopper and to reduce movement. […] Once a continuous 15 second block is recorded, the software calculates the average of the above parameters. […] An average arterial oxygen saturation for each treatment group was calculated and analyzed using one-way ANOVA with Bonferroni post-test comparisons of all treatment groups.
On Day 21, mice were administered a terminal dose of Ketamine/Xylazine (120 mg/kg/5 mg/kg IP, respectively). […] Wet and dry lung weights and wet wt. to dry wt. ratios were calculated for each treatment group. […]

[4] = system: bleomycin-induced pulmonary fibrosis in C57BL/6 male mice; details: 20 days post bleomycin; vs vehicle or isotype control

Q: Which “Pulmonary Artery Cross-Sectional Area (PA CSA)” value ([1]; H4H6327P2 25 mg/kg SC every 3 days, Bosentan 300 mg/kg PO SID, FIG. 1) does the source give for `COc1ccccc1Oc1c(NS(=O)(=O)c2ccc(C(C)(C)C)cc2)nc(-c2ncccn2)nc1OCCO` [Bosentan, reference compound] here?
A: Its value is “showed a similar yet reduced capacity to maintain basal PA CSA; also recorded: significantly lessen the reduction in PA CSA”.

Q: And the “Right Ventricular Cardiac Output (RV CO)” value ([1]; preventive dosing, FIG. 2)?
A: The value was “showed a greater preservation of RV CO compared to the vehicle-treated group”.

Q: What about the “Right Ventricular Free Wall Thickness, systole (RVFW,s)” value ([1]; preventive dosing, FIG. 4) of the same compound?
A: Its value is “tends to reduce (not significant) the thickening of the RVFW”.

Q: And the “Pulmonary Artery Cross-Sectional Area (PA CSA)” value [2]?
A: The value was “significantly reverse the reduction in pulmonary artery cross-sectional area”.

Q: What about the “Pulmonary Artery Cross-Sectional Area (PA CSA)” value ([2]; listed as bosentan) of the same compound?
A: The value was “lessened lumen diameter loss”.

Q: And the “Right Ventricular Free Wall (RVFW) Thickening” value [2]?
A: The value was “significantly reverse right ventricular free wall (RVFW) thickening”.

Q: What about the “Right Ventricular Free Wall (RVFW) Thickening” value ([2]; listed as bosentan) of the same compound?
A: The value was “attenuated right ventricular free wall (RVFW) thickening”.

Q: What about the “Distal Pulmonary Arteriole Wall Thickening” value ([2]; FIG. 5) of the same compound?
A: The value was “significantly reverses distal pulmonary arteriole wall thickening”.

Q: What about the “Right Ventricular Cardiac Output (RV CO)” value ([2]; FIG. 9) of the same compound?
A: Its value is “Greater preservation of RV CO in bosentan-treated vs antibody-treated animals”.

Q: And the “Right Ventricular Systolic Pressure (RVSP)” value ([2]; FIG. 10)?
A: Its value is “tends to reduce the RVSP”.

Q: And the “lung wet weights (in words)” value ([3]; 21 days post bleomycin, vs isotype control)?
A: The value was “showed statistically significant reductions in wet lung weights”.

Q: What about the “Wet Weight Rt. Lung (mg) AVG ± SEM” value ([3]; bleomycin 3.2 U/kg, 21 days post bleomycin) of the same compound?
A: The value was 117 ± 6 mg.

Q: What about the “% Arterial Blood 02 Saturation AVG ± SEM” value ([3]; bleomycin 3.2 U/kg, MouseOx throat collar sensor) of the same compound?
A: Its value is 93 ± 1%.

Q: And the “Total Collagen Rt. Lung (ug) AVG ± SEM” value ([3]; bleomycin 3.2 U/kg, Sircol soluble collagen, Day 21)?
A: The value was 403 ± 38 µg.

Q: What about the “collagen accumulation in the lung (in words)” value ([3]; post bleomycin exposure) of the same compound?
A: The value was “reduced collagen accumulation in the lung”.

Q: And the “arterial blood oxygen saturation (in words)” value [4]?
A: The value was “tended to restore arterial blood oxygen saturation closer to baseline levels”.
